Reference: patent US12624068B2, “Exon skipping by peptide nucleic acid derivatives” (OliPass Corporation, priority 2016, dated 2026)
[C(1O2)] = modified PNA monomer acting as cytosine, C(pOq) type, 1O2; [A(5)] = modified PNA monomer acting as adenine, A(p) type, p=5; [G(6)] = modified PNA monomer acting as guanine, G(p) type, p=6; {Fethoc} = N-terminal Fethoc cap; {NH2} = C-terminal amide

Assays:
[1] = system: mouse dystrophin pre-mRNA; experiment: Dystrophin nested PCR (Method A) in muscles of mdx mice; assay type: in vivo
Protocol: “DMD-ASO 1” and “DMD-ASO 4” were evaluated for their ability to induce exon skipping in muscles of mdx mice by subcutaneous administration as follows. [ASO Treatment & Sampling Muscle Tissues] The injection solutions were prepared by diluting an aqueous mother stock solution of “DMD-ASO 1” or “DMD-ASO 4” in PBS to 500 nM. Male mdx mice were subcutaneously administered with vehicle only (negative control), “DMD-ASO 1” or “DMD-ASO 4” at 2 mL/Kg, 2× per day (BID) for 3 days. One day after the final dose, the animals were anesthetized with zoletil/rompun, and sacrificed to sample muscle tissues including the heart, diaphragm, gatrocnemius, quadriceps, and triceps. [RNA Extraction] Muscle samples were homogenized by grinding in a tube kept on ice, and subjected to total RNA extraction with 1 mL trizol reagent (Invitrogen) per ca 100 mg muscle tissue. [cDNA Synthesis by One-Step RT-PCR] 500 ng of RNA template was used in a 25 μL reverse transcription reaction using Super Script® One-Step RT-PCR kit with Platinum® Taq polymerase (Cat. Number 10928-042, Invitrogen) and a set of exon-specific primers [DMD-exon 21_forward: (5'→3') […] NO: 103); and DMD-exon 25_reverse: (5'→3') […] [Nested PCR Amplification] 1 μL of cDNA was further amplified in a 20 μL nested PCR (Cat. Number K2612, Bioneer) reaction against a set of primers [DMD-exon 22n_forward: (5'→3') […] NO: 105); and DMD-exon 25n_reverse: (5'→3') […] [Identification of Exon Skipping Product] The skipping of exon 23 was detected only in the animals treated with “DMD-ASO 1” and “DMD-ASO 4”. […] Mdx mice subcutaneously received “DMD-ASO 1” at 0 (negative control) or 10 pmole/Kg, 2× per day for 5 days. (2 animals per group) One day after the final dose, the animals were sacrificed for tissue sampling. The triceps samples were evaluated for the skipping of exon 23 according to the nested RT-PCR method described in “DMD Example 1”.

serum myoglobin = experiment: Serum myoglobin level in mdx mice; assay type: in vivo; conditions: DMD-ASO 1 50 pmole/Kg, DMD-ASO 2 or DMD-ASO 6 10 pmole/Kg, 2× per week, Week 66
Protocol: [Terminal Sacrifice] In Week 48, the animals were subjected to terminal sacrifice for blood sampling. The blood samples were analyzed for the serum level of CK (Creatine Kinase Activity Assay Kit, Cat. Number ab155901, Abcam) and myoglobin (Myoglobin ELISA Kit, Cat. Number ab210965, Abcam) to assess the degree of muscle degradation according to the manufacturer's instructions. Muscle tissues were analyzed by western blot for the full-length dystrophin.
[Terminal Sacrifice] All the survived animals were sacrificed for blood sampling in Week 66 post the grouping. The blood samples were subjected to ELISA assays for serum creatine kinase (CK) and serum myoglobin as described in “DMD Example 6”.

[2] = system: sodium current in PC3 cells; experiment: CoroNa assay of sodium current in PC3 cells; assay type: cell-based, human; conditions: 30 hours
Protocol: Cellular sodium current is measured by patch clamp. As sodium ions enter cell, the intra-cellular sodium ion level increases. The intra-cellular sodium level can be probed using a sodium ion sensitive dye. “CoroNa Green” is a dye with a sodium ion chelator of crown ether type. Upon chelation with a sodium ion, “CoroNa Green” emits green fluorescence. “CoroNa Green” has been used to indirectly measure the intra-cellular sodium level. […] [Proc. Natl. Acad. Sci. USA vol 106(38), 16145-16150 (2009)]
PC3 cells are known to abundantly express the human SCN9A mRNA, although there are other SCN subtypes concomitantly expressed. [Br J. Pharmacol. vol 156, 420-431 (2009)] Thus an inhibition of SCN9A mRNA expression may lead to a considerable reduction of the sodium current in PC3 cells, if the sodium ion current by the Nav1.7 sodium channel subtype occupies a marked portion of the total sodium ion current in PC3 cells. It is note that the SCN9A mRNA encodes the Nav1.7 sodium channel subtype.
“SCN-ASO 7” was evaluated for its ability to inhibit the sodium ion current in PC3 cells using “CoroNa Green” as follows.
[ASO Treatment] PC3 cells grown in 35 mm culture dish containing 2 mL F-12K medium were treated with “SCN-ASO 7” at 0 zM (negative control), 100 zM or 1 aM.
[CoroNa Assay] 30 hours later, the cells were washed with 2 mL HBSS (Hank's Balanced Salt Solution, Cat. Number 14025-092, Life Technologies), and then charged with 2 mL fresh HBSS. Then the cells were treated with 5 μM “CoroNa Green” (Cat. Number C36676, Life Technologies) at 37° C. 30 min later, the cells were washed 2× with 2 mL HBSS, and charged with 2 mL fresh HBSS. The culture dish was mounted on an Olympus fluorescence microscope equipped with a digital video camera to continuously capture the green fluorescence images of the cells. The cells were acutely treated with 100 mM NaCl, and then the changes in fluorescence cellular images were digitally recorded over a period of 3 min. There were about 4 cells per frame on average. The fluorescence intensities from each individual cell were traced at the resolution of a second. The traces of the intracellular fluorescence intensities from individual cells were overlaid and averaged at each time point. The average of the traces from the individual cells of each ASO concentration were plotted as provided in FIG. 30A using ImageJ program (version 1.50i, NIH). The average fluorescence intensity trace was taken as the individual intra-cellular sodium concentration trace for the cells treated with “SCN-ASO 7” at 0 (negative control), 100 or 1,000 zM.
“SCN-ASO 3” was evaluated for its ability to inhibit the sodium current in PC3 cells using “CoroNa Green” according to the protocol described in “SCN9A Example 5”, unless noted otherwise.
“SCN-ASO 8” was evaluated for its ability to inhibit the sodium current in PC3 cells using “CoroNa Green” according to the protocol described in “SCN9A Example 3”, unless noted otherwise.

Substance | skipping of dystrophin exon 23 (nested PCR Method A) ([1]; subcutaneous 10 pmole/Kg, 2× per day for 5 days, triceps) | skipping of dystrophin exon 23 (nested PCR Method A) ([1]; subcutaneous 1,000 pmole/Kg BID for 3 days, quadriceps and gastrocnemius) | serum myoglobin level smaller than the mdx negative control group by (serum myoglobin) [%] | decrease of sodium current (CoroNa) ([2]; PC3 cells, 100 zM) | decrease of sodium current / sodium channel activity (CoroNa) ([2]; PC3 cells, 1,000 zM) [%] | average cellular fluorescence intensity (CoroNa Green) ([2]; PC3 cells, 1,000 zM, at 100 sec after 100 mM NaCl) [arbitrary unit]
Fethoc-A(5)GA-G(6)CC(1O2)-TCA-A(5)AA(5)-T-NH2 (antisense AGAGCCTCAAAAT; Fethoc N-cap, C-terminal amide, chemistry not fully specified) [DMD-ASO 1] | induced the skipping of exon 23 | detected | 43 |  |  | 
Fethoc-AC(1O2)T-TA(5)C-G(6)CA-A(5)AA(5)-AC(1O2)A-A(5)-NH2 (ACTTACGCAAAAACAA; all peptide nucleic acid (PNA), [C(1O2)] at 2, 14, [A(5)] at 5, 10, 12, 16, [G(6)] at 7, 5' {Fethoc}, 3' {NH2}; peptide nucleic acid written N to C) [SCN-ASO 7] |  |  |  | no notable decrease | 37 | 51.47
